Experimental data published in ChEMBL document CHEMBL1649156, “Antianaerobic activity of sulopenem compared to six other agents” (2009).

Key:
Type in all cases: functional
[1] = tested on: Prevotella disiens; experiment: Antimicrobial activity in Prevotella disiens by CLSI agar dilution method in presence of Tazobactam
[2] = tested on: Prevotella baroniae; experiment: Antimicrobial activity in Prevotella baroniae by CLSI agar dilution method in presence of Tazobactam; details: Segatella baroniae
[3] = tested on: Hoylesella oralis; experiment: Antimicrobial activity in Prevotella oralis group by CLSI agar dilution method in presence of Tazobactam
[4] = tested on: Prevotella veroralis; experiment: Antimicrobial activity in Prevotella veroralis by CLSI agar dilution method in presence of Tazobactam
[5] = tested on: Prevotella bergensis; experiment: Antimicrobial activity in Prevotella bergensis by CLSI agar dilution method in presence of Tazobactam; details: Hallella bergensis
[6] = tested on: Prevotella salivae; experiment: Antimicrobial activity in Prevotella salivae by CLSI agar dilution method in presence of Tazobactam; details: Segatella salivae
[7] = tested on: Hoylesella loescheii; experiment: Antimicrobial activity in Prevotella loescheii by CLSI agar dilution method in presence of Tazobactam
[8] = tested on: Prevotella sp.; experiment: Antimicrobial activity in Prevotella sp.by CLSI agar dilution method in presence of Tazobactam
[9] = tested on: Porphyromonas asaccharolytica; experiment: Antimicrobial activity in Porphyromonas asaccharolytica by CLSI agar dilution method in presence of Tazobactam
[10] = tested on: Fusobacterium nucleatum; experiment: Antimicrobial activity in Fusobacterium nucleatum by CLSI agar dilution method in presence of Tazobactam
[11] = tested on: Fusobacterium necrophorum; experiment: Antimicrobial activity in Fusobacterium necrophorum by CLSI agar dilution method in presence of Tazobactam
[12] = tested on: Fusobacterium mortiferum; experiment: Antimicrobial activity in Fusobacterium mortiferum by CLSI agar dilution method in presence of Tazobactam
[13] = tested on: Fusobacterium varium; experiment: Antimicrobial activity in Fusobacterium varium by CLSI agar dilution method in presence of Tazobactam
[14] = tested on: Finegoldia magna; experiment: Antimicrobial activity in Finegoldia magna by CLSI agar dilution method in presence of Tazobactam
[15] = tested on: Parvimonas micra; experiment: Antimicrobial activity in Micromonas micros by CLSI agar dilution method in presence of Tazobactam
[16] = tested on: Peptostreptococcus anaerobius; experiment: Antimicrobial activity in Peptostreptococcus anaerobius by CLSI agar dilution method in presence of Tazobactam
[17] = tested on: Peptoniphilus asaccharolyticus; experiment: Antimicrobial activity in Peptoniphilus asaccharolyticus by CLSI agar dilution method in presence of Tazobactam
[18] = tested on: Anaerococcus tetradius; experiment: Antimicrobial activity in Anaerococcus tetradius by CLSI agar dilution method in presence of Tazobactam
[19] = tested on: Anaerococcus prevotii; experiment: Antimicrobial activity in Anaerococcus prevotii by CLSI agar dilution method in presence of Tazobactam
[20] = tested on: Lactobacillus; experiment: Antimicrobial activity in Lactobacillus by CLSI agar dilution method in presence of Tazobactam
[21] = tested on: Bifidobacterium; experiment: Antimicrobial activity in Bifidobacterium by CLSI agar dilution method in presence of Tazobactam
[22] = tested on: Cutibacterium acnes; experiment: Antimicrobial activity in Propionibacterium acnes by CLSI agar dilution method in presence of Tazobactam
[23] = tested on: Actinomyces; experiment: Antimicrobial activity in Actinomyces by CLSI agar dilution method in presence of Tazobactam
[24] = tested on: Eggerthella lenta; experiment: Antimicrobial activity in Eggerthella lenta by CLSI agar dilution method in presence of Tazobactam
[25] = tested on: Clostridium perfringens; experiment: Antimicrobial activity in Clostridium perfringens by CLSI agar dilution method in presence of Tazobactam

SMILES: CCN1CCN(C(=O)N[C@@H](C(=O)N[C@@H]2C(=O)N3[C@@H]2SC(C)(C)[C@@H]3C(=O)O)c2ccccc2)C(=O)C1=O [PIPERACILLIN]
- MIC [1]: ≤ 0.125 µg/mL
- MIC50 [1]: ≤ 0.125 µg/mL
- MIC [2]: ≤ 0.125 µg/mL
- MIC [3]: ≤ 0.125 µg/mL
- MIC [4]: ≤ 0.125 µg/mL
- MIC [5]: ≤ 0.125 µg/mL
- MIC [6]: ≤ 0.125 µg/mL
- MIC [7]: ≤ 0.125 µg/mL
- MIC [8]: ≤ 0.125 µg/mL
- MIC [9]: ≤ 0.125 µg/mL
- MIC [10]: ≤ 0.125 µg/mL
- MIC50 [10]: ≤ 0.125 µg/mL
- MIC90 [10]: ≤ 0.125 µg/mL
- MIC [11]: ≤ 0.125 µg/mL
- MIC50 [11]: ≤ 0.125 µg/mL
- MIC [12]: 0.25 µg/mL
- MIC50 [12]: 0.25 µg/mL
- MIC90 [12]: 1 µg/mL
- MIC50 [13]: 4 µg/mL
- MIC90 [13]: 8 µg/mL
- MIC [14]: ≤ 0.125 µg/mL
- MIC50 [14]: ≤ 0.125 µg/mL
- MIC90 [14]: 0.25 µg/mL
- MIC [15]: ≤ 0.125 µg/mL
- MIC50 [15]: ≤ 0.125 µg/mL
- MIC90 [15]: ≤ 0.125 µg/mL
- MIC [16]: 0.25 µg/mL
- MIC50 [16]: 0.25 µg/mL
- MIC90 [16]: 16 µg/mL
- MIC [17]: ≤ 0.125 µg/mL
- MIC50 [17]: ≤ 0.125 µg/mL
- MIC [18]: ≤ 0.125 µg/mL
- MIC50 [18]: ≤ 0.125 µg/mL
- MIC90 [18]: 0.25 µg/mL
- MIC [19]: ≤ 0.125 µg/mL
- MIC50 [20]: 2 µg/mL
- MIC90 [20]: 2 µg/mL
- MIC [21]: ≤ 0.125 µg/mL
- MIC50 [21]: ≤ 0.125 µg/mL
- MIC90 [21]: 0.25 µg/mL
- MIC50 [22]: 0.25 µg/mL
- MIC90 [22]: 1 µg/mL
- MIC [23]: 0.5 µg/mL
- MIC50 [23]: 1 µg/mL
- MIC50 [24]: 16 µg/mL
- MIC90 [24]: 16 µg/mL
- MIC [25]: ≤ 0.125 µg/mL
- MIC50 [25]: ≤ 0.125 µg/mL
- MIC90 [25]: 0.5 µg/mL
